Patent US8912216B2, “Hetaryl-[1,8]naphthyridine derivatives” (Merck Patent GmbH, priority 2010, dated 2014)

What was measured:
[1] = target: T1, GST-ALK5 (Homo sapiens, UniProt P36897); experiment: In-vitro (enzyme) kinase assay, 384-well flashplate (Example 36); format: biochemical; conditions: GST-ALK5, GST-SMAD2 substrate, 3 mM ATP, 30° C., 45 min; read-out: TβR activity (Example 36)
T1 sequence (P36897 34-503): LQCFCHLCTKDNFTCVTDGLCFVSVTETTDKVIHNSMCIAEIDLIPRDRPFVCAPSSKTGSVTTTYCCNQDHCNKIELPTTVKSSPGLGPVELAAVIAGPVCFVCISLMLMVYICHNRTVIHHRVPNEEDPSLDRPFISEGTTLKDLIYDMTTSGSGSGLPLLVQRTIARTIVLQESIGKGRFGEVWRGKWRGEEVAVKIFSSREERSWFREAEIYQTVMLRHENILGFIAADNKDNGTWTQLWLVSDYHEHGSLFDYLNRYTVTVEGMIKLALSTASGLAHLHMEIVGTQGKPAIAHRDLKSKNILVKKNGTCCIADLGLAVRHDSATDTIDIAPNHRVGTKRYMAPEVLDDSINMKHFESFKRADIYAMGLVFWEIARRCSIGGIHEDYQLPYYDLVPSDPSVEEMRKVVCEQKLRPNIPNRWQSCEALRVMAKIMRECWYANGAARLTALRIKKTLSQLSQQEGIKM
Method in brief: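 Radiometric flashplate assay: 31.2 nM GST-ALK5 phosphorylating 439 nM GST-SMAD2 with 3 mM ATP plus ³³P-ATP, in HEPES/MgCl2/MnCl2/DTT/BSA buffer pH 7.4, 45 min at 30 °C, 5-10 compound concentrations. EDTA stop, filtration and washing, then radioactivity counted; IC50 derived from the curve.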

[2] = test system: TGF-beta-induced phosphorylation of Smad2 and Smad3 in Mv1-Lu cells; experiment: Inhibition of Smad2/3 phosphorylation in Mv1Lu cells (Example 35A); format: cell-based, mink Mustela vison; conditions: Neogale vison, Mv1-Lu cells, TGF-beta 1 5 ng/ml, phospho-Smad2/3 ELISA, read-out: TβR activity (Example 35A)
Method in brief: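 Serum-starved (16-20 h) Mv1-Lu mink lung epithelial cells were pre-incubated 1.5 h with compound dilutions (0.2% DMSO), then stimulated 1 h with 5 ng/ml TGF-beta 1. Phospho-Smad2 (Ser465/467)/Smad3 (Ser423/425) in lysates was measured by ELISA. IC50 came from dose-response fits between stimulated and unstimulated controls.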

Structure (SMILES)	IC50 [1] [nM]	IC50 [2] [nM]
Fc1ccc(Cl)cc1-c1cc(-c2cncc(-c3cccc4c3CCNC4)c2)c2cccnc2n1 [compound 168, 2-(5-Chloro-2-fluoro-phenyl)-4-[5-(1,2,3,4-tetrahydro-isoquinolin-5-yl)-pyridin-3-yl]-[1,8]naphthyridine]	1000 to 10000	1000 to 10000
Nc1ccc(-c2cncc(-c3cc(-c4cc(Cl)ccc4F)nc4ncccc34)c2)cn1 [compound 169, 5′-[2-(5-Chloro-2-fluoro-phenyl)-[1,8]naphthyridin-4-yl]-[3,3′]bipyridinyl-6-ylamine]	< 100	100 to 1000
OCCN(CCO)c1cccc(-c2cncc(-c3cc(-c4cc(Cl)ccc4F)nc4ncccc34)c2)n1 [compound 170, 2-[{5′-[2-(5-Chloro-2-fluoro-phenyl)-[1,8]naphthyridin-4-yl]-[2,3′]bipyridinyl-6-yl}-(2-hydroxy-ethyl)amino]-ethanol]	< 100	100 to 1000
CN1CCN(c2cncc(-c3cncc(-c4cc(-c5cc(Cl)ccc5F)nc5ncccc45)c3)c2)CC1 [compound 171, 2-(5-Chloro-2-fluoro-phenyl)-4-[5′-(4-methyl-piperazin-1-yl)-[3,3′]bipyridinyl-5 yl]-[1,8]naphthyridine]	< 100	< 100
Fc1ccc(Cl)cc1-c1cc(-c2cncc(-c3ccc(CCN4CCCC4)cc3)c2)c2cccnc2n1 [compound 172, 2-(5-Chloro-2-fluoro-phenyl)-4-{5-[4-(2-pyrrolidin-1-yl-ethyl)-phenyl]-pyridin-3-yl}-[1,8]naphthyridine]	< 100	< 100
CCN1CCc2ccc(-c3cncc(-c4cc(-c5cc(Cl)ccc5F)nc5ncccc45)c3)cc2C1 [compound 173, 2-(5-Chloro-2-fluoro-phenyl)-4-[5-(2-ethyl-1,2,3,4-tetrahydro-isoquinolin-7-yl)-pyridin-3-yl]-[1,8]naphthyridine]	< 100	< 100
CC(C)N1CCC(c2ccc(-c3cncc(-c4cc(-c5cc(Cl)ccc5F)nc5ncccc45)c3)cc2)CC1 [compound 174, 2-(5-Chloro-2-fluoro-phenyl)-4-{5-[4-(1-isopropyl-piperidin-4-yl)-phenyl]-pyridin-3-yl}-[1,8]naphthyridine]	< 100	< 100
Fc1ccc(Cl)cc1-c1cc(-c2cncc(-c3ccc4c(c3)CNC4)c2)c2cccnc2n1 [compound 175, 2-(5-Chloro-2-fluoro-phenyl)-4-[5-(2,3-dihydro-1H-isoindol-5-yl)-pyridin-3-yl]-[1,8]naphthyridine]	< 100	< 100
CC(C)N1CCc2ccc(-c3cncc(-c4cc(-c5cc(Cl)ccc5F)nc5ncccc45)c3)cc2C1 [compound 176, 2-(5-Chloro-2-fluoro-phenyl)-4-[5-(2-isopropyl-1,2,3,4-tetrahydro-isoquinolin-7-yl)-pyridin-3-yl]-[1,8]naphthyridine]	< 100	< 100
CN(C)CCc1ccc(-c2cncc(-c3cc(-c4cc(F)ccc4F)nc4ncccc34)c2)cc1 [compound 177, [2-(4-{5-[2-(2,5-Difluoro-phenyl)-[1,8]naphthyridin-4-yl]-pyridin-3-yl}-phenyl)-ethyl]-dimethyl-amine]	< 100	< 100
CN(C)CCNC(=O)c1ccc(-c2cncc(-c3cc(-c4cc(Cl)ccc4F)nc4ncccc34)c2)cn1 [compound 178, 5′-[2-(5-Chloro-2-fluoro-phenyl)-[1,8]naphthyridin-4-yl]-[3,3′]bipyridinyl-6-carboxylic acid (2-dimethylamino-ethyl)-amide]	100 to 1000	100 to 1000
Fc1ccc(Cl)cc1-c1cc(-c2ccc(-c3ccccc3)nc2)c2cccnc2n1 [compound 5599, 2-(5-Chloro-2-fluoro-phenyl)-4-(6-phenyl-pyridin-3-yl)-[1,8]naphthyridine]	> 10000	> 10000
